Test results taken from ChEMBL document CHEMBL3351473, “Synthesis and biological evaluation of α-1-C-4'-arylbutyl-L-arabinoiminofuranoses, a new class of α-glucosidase inhibitors” (Bioorg Med Chem Lett, 2014).
pIC50: −log10 of the molar value.

Key:
[1] = target: T1, Sucrase-isomaltase, intestinal (Rattus norvegicus, UniProt P23739); test: Inhibition of Wistar rat intestinal sucrase assessed as inhibition of D-glucose release after 30 mins by spectrophotometry
[2] = target: T1, Sucrase-isomaltase, intestinal; test: Inhibition of Wistar rat intestinal isomaltase assessed as inhibition of D-glucose release after 30 mins by spectrophotometry
[3] = Inhibition of Wistar rat intestinal maltase assessed as inhibition of D-glucose release after 30 mins by spectrophotometry

T1 sequence (P23739 1-1013 limits assumed): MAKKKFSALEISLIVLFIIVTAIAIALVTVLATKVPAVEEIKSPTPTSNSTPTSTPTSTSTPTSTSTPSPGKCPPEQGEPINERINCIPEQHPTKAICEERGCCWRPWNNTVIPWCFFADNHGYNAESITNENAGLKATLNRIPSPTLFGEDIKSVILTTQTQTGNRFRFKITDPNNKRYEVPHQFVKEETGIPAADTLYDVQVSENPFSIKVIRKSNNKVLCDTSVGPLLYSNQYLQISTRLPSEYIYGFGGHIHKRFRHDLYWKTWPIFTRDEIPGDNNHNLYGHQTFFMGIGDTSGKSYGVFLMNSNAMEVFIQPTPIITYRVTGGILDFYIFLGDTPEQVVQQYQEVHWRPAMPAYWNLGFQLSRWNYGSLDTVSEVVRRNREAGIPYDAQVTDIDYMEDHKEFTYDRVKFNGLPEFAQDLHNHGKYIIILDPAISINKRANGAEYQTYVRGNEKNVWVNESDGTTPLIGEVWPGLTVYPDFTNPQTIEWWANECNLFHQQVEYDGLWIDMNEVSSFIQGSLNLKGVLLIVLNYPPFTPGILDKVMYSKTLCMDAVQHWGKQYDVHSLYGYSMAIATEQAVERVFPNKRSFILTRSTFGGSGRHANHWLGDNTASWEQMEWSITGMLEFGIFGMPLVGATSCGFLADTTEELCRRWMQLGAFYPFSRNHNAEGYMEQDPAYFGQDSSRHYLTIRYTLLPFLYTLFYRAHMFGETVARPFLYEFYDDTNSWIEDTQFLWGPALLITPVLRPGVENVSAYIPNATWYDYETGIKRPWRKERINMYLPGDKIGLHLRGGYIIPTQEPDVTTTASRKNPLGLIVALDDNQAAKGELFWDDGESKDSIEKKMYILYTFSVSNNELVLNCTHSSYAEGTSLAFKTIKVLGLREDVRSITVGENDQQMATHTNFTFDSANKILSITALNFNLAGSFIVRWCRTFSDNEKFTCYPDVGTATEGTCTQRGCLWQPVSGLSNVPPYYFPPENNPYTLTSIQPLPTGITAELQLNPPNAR
T1 sequence (P23739 1014-1841 limits assumed): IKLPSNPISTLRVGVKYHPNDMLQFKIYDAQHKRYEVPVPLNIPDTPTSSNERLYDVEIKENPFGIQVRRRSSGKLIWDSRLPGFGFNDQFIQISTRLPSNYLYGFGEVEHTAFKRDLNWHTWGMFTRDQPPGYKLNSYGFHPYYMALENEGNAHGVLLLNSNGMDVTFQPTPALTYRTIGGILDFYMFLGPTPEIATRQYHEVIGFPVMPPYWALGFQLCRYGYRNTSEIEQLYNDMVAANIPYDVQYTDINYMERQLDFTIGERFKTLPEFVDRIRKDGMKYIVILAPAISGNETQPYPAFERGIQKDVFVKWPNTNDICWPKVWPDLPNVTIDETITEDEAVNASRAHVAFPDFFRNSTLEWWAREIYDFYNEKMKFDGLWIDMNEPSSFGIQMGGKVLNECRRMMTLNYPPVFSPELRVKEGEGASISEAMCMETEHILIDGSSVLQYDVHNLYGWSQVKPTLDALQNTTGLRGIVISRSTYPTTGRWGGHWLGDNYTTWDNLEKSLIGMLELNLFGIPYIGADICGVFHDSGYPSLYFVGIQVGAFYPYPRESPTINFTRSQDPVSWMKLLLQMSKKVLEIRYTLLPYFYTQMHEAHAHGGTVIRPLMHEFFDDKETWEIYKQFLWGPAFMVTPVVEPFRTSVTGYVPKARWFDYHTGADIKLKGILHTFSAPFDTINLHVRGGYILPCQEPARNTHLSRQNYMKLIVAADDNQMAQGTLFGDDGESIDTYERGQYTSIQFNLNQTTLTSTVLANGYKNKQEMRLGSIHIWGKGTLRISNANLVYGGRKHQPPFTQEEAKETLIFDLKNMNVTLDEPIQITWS

pIC50 [1]	pIC50 [2]	pIC50 [3]	SMILES
7.59	6.66		OC[C@@H]1N[C@@H](CCCCc2cc(F)cc(F)c2)[C@H](O)[C@H]1O
6.77	5.52		OC[C@@H]1N[C@@H](CCCCc2ccc(F)cc2)[C@H](O)[C@H]1O
6.96	5.22		OC[C@@H]1N[C@@H](CCCCc2ccc(O)cc2)[C@H](O)[C@H]1O
6.89	5.74		COc1ccc(CCCC[C@@H]2N[C@@H](CO)[C@H](O)[C@H]2O)cc1
		6.66	OC[C@@H]1N[C@@H](CCCCc2ccccc2)[C@H](O)[C@H]1O
7.35	6.20		Cc1ccc(CCCC[C@@H]2N[C@@H](CO)[C@H](O)[C@H]2O)cc1
